Data from patent US20260262643A1, “HERBICIDAL BENZOXAZINES” (FMC CORPORATION, priority 2022, published 2026).

Assays:
[1] = test system: blackgrass; experiment: Test A preemergence; type: in vivo, Alopecurus myosuroides
Method in brief: (§1)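 Greenhouse pot test, 10 days. Compound (non-phytotoxic solvent, surfactant) sprayed on soil at seeding or on seedlings at one- to two-leaf stage. Visual injury rated 0–100 against untreated plants.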

[2] = test system: corn; experiment: Test A preemergence; type: in vivo, Zea mays
Method in brief: as §1

[3] = test system: foxtail, giant; experiment: Test A preemergence; type: in vivo, Setaria faberi
Method in brief: as §1

[4] = test system: goosegrass; experiment: Test A preemergence; type: in vivo, Eleusine indica
Method in brief: as §1

[5] = test system: kochia; experiment: Test A preemergence; type: in vivo, Bassia scoparia
Method in brief: as §1

[6] = test system: oat, wild; experiment: Test A preemergence; type: in vivo, Avena fatua
Method in brief: as §1

[7] = test system: pigweed, palmer; experiment: Test A preemergence; type: in vivo, Amaranthus palmeri
Method in brief: as §1

[8] = test system: ragweed; experiment: Test A preemergence; type: in vivo, Ambrosia artemisiifolia
Method in brief: as §1

[9] = test system: ryegrass, Italian; experiment: Test A preemergence; type: in vivo, Lolium multiflorum
Method in brief: as §1

[10] = test system: soybean; experiment: Test A preemergence; type: in vivo, Glycine max
Method in brief: as §1

[11] = test system: wheat; experiment: Test A preemergence; type: in vivo, Triticum aestivum
Method in brief: as §1

[12] = test system: blackgrass; experiment: Test A postemergence; type: in vivo, Alopecurus myosuroides; settings: postemergence, 10 days; for Blackgrass plant response rating: 125 g ai/ha, 0 to 100 scale, 0 no effect, 100 complete control; for Plant response rating, Blackgrass: 500 g ai/ha, visual injury, 0 to 100 scale (0 no effect, 100 complete control)
Method in brief: as §1

[13] = test system: corn; experiment: Test A postemergence; type: in vivo, Zea mays; settings: postemergence, 10 days; for Corn plant response rating: 125 g ai/ha, 0 to 100 scale, 0 no effect, 100 complete control; for Plant response rating, Corn: 500 g ai/ha, visual injury, 0 to 100 scale (0 no effect, 100 complete control)
Method in brief: as §1

[14] = test system: foxtail, giant; experiment: Test A postemergence; type: in vivo, Setaria faberi; settings: postemergence, 10 days; for Foxtail, Giant plant response rating: 125 g ai/ha, 0 to 100 scale, 0 no effect, 100 complete control; for Plant response rating, Foxtail, Giant: 500 g ai/ha, visual injury, 0 to 100 scale (0 no effect, 100 complete control)
Method in brief: as §1

[15] = test system: goosegrass; experiment: Test A postemergence; type: in vivo, Eleusine indica; settings: postemergence, 10 days; for Goosegrass plant response rating: 125 g ai/ha, 0 to 100 scale, 0 no effect, 100 complete control; for Plant response rating, Goosegrass: 500 g ai/ha, visual injury, 0 to 100 scale (0 no effect, 100 complete control)
Method in brief: as §1

[16] = test system: kochia; experiment: Test A postemergence; type: in vivo, Bassia scoparia; settings: postemergence, 10 days; for Kochia plant response rating: 125 g ai/ha, 0 to 100 scale, 0 no effect, 100 complete control; for Plant response rating, Kochia: 500 g ai/ha, visual injury, 0 to 100 scale (0 no effect, 100 complete control)
Method in brief: as §1

[17] = test system: oat, wild; experiment: Test A postemergence; type: in vivo, Avena fatua; settings: postemergence, 10 days; for Oat, Wild plant response rating: 125 g ai/ha, 0 to 100 scale, 0 no effect, 100 complete control; for Plant response rating, Oat, Wild: 500 g ai/ha, visual injury, 0 to 100 scale (0 no effect, 100 complete control)
Method in brief: as §1

[18] = test system: pigweed, palmer; experiment: Test A postemergence; type: in vivo, Amaranthus palmeri; settings: postemergence, 10 days; for Pigweed, Palmer plant response rating: 125 g ai/ha, 0 to 100 scale, 0 no effect, 100 complete control; for Plant response rating, Pigweed, Palmer: 500 g ai/ha, visual injury, 0 to 100 scale (0 no effect, 100 complete control)
Method in brief: as §1

[19] = test system: ragweed; experiment: Test A postemergence; type: in vivo, Ambrosia artemisiifolia; settings: postemergence, 10 days; for Ragweed plant response rating: 125 g ai/ha, 0 to 100 scale, 0 no effect, 100 complete control; for Plant response rating, Ragweed: 500 g ai/ha, visual injury, 0 to 100 scale (0 no effect, 100 complete control)
Method in brief: as §1

[20] = test system: ryegrass, Italian; experiment: Test A postemergence; type: in vivo, Lolium multiflorum; settings: postemergence, 10 days; for Ryegrass, Italian plant response rating: 125 g ai/ha, 0 to 100 scale, 0 no effect, 100 complete control; for Plant response rating, Ryegrass, Italian: 500 g ai/ha, visual injury, 0 to 100 scale (0 no effect, 100 complete control)
Method in brief: as §1

[21] = test system: soybean; experiment: Test A postemergence; type: in vivo, Glycine max; settings: postemergence, 10 days; for Soybean plant response rating: 125 g ai/ha, 0 to 100 scale, 0 no effect, 100 complete control; for Plant response rating, Soybean: 500 g ai/ha, visual injury, 0 to 100 scale (0 no effect, 100 complete control)
Method in brief: as §1

[22] = test system: wheat; experiment: Test A postemergence; type: in vivo, Triticum aestivum; settings: postemergence, 10 days; for Wheat plant response rating: 125 g ai/ha, 0 to 100 scale, 0 no effect, 100 complete control; for Plant response rating, Wheat: 500 g ai/ha, visual injury, 0 to 100 scale (0 no effect, 100 complete control)
Method in brief: as §1

[23] = test system: galium; experiment: Test A postemergence; type: in vivo, Galium aparine; settings: postemergence, 10 days; for Galium plant response rating: 125 g ai/ha, 0 to 100 scale, 0 no effect, 100 complete control; for Plant response rating, Galium: 500 g ai/ha, visual injury, 0 to 100 scale (0 no effect, 100 complete control)
Method in brief: as §1

[24] = test system: horseweed; experiment: Test A postemergence; type: in vivo, Erigeron canadensis; settings: postemergence, 10 days; for Horseweed plant response rating: 125 g ai/ha, 0 to 100 scale, 0 no effect, 100 complete control; for Plant response rating, Horseweed: 500 g ai/ha, visual injury, 0 to 100 scale (0 no effect, 100 complete control)
Method in brief: as §1

[25] = test system: barnyardgrass; experiment: Test B flooded paddy test; type: in vivo, Echinochloa crus-galli; settings: 250 g ai/ha, Flood, 13 days, 0 to 100 scale (0 no effect, 100 complete control)
Method in brief: (§2)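 Compound is introduced into paddy water covering soil by 3 cm, treating plants that have reached two leaves. Pots are kept flooded at that depth under greenhouse conditions. Assessment at 13 days gives a 0–100 visual control score.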

[26] = test system: ducksalad; experiment: Test B flooded paddy test; type: in vivo, Heteranthera limosa; settings: 250 g ai/ha, Flood, 13 days, 0 to 100 scale (0 no effect, 100 complete control)
Method in brief: as §2

[27] = test system: rice; experiment: Test B flooded paddy test; type: in vivo, Oryza sativa; settings: 250 g ai/ha, Flood, 13 days, 0 to 100 scale (0 no effect, 100 complete control)
Method in brief: as §2

[28] = test system: sedge, umbrella; experiment: Test B flooded paddy test; type: in vivo, Cyperus difformis; settings: 250 g ai/ha, Flood, 13 days, 0 to 100 scale (0 no effect, 100 complete control)
Method in brief: as §2

[29] = 125 g ai/ha, visual injury after 10 days, 0 to 100 scale, 0 is no effect, 100 is complete control
[30] = 500 g ai/ha, 0 to 100 scale (0 no effect, 100 complete control), 10 days

Cc1ccc(-n2cnc(C(C)(C)C)n2)cc1C(=O)N1C[C@H](C)Oc2c(C)cccc21 [Compound 100]
Plant response rating, Blackgrass [1, 29]: 60
Plant response rating, Blackgrass [1, 30]: 70
Plant response rating, Corn [2, 29]: 0
Plant response rating, Corn [2, 30]: 40
Plant response rating, Foxtail, Giant [3, 29]: 100
Plant response rating, Foxtail, Giant [3, 30]: 100
Plant response rating, Goosegrass [4, 29]: 100
Plant response rating, Goosegrass [4, 30]: 100
Plant response rating, Kochia [5, 29]: 90
Plant response rating, Kochia [5, 30]: 100
Plant response rating, Oat, Wild [6, 29]: 40
Plant response rating, Oat, Wild [6, 30]: 90
Plant response rating, Pigweed, Palmer [7, 29]: 100
Plant response rating, Pigweed, Palmer [7, 30]: 100
Plant response rating, Ragweed [8, 29]: 80
Plant response rating, Ragweed [8, 30]: 100
Plant response rating, Ryegrass, Italian [9, 29]: 90
Plant response rating, Ryegrass, Italian [9, 30]: 100
Plant response rating, Soybean [10, 29]: 80
Plant response rating, Soybean [10, 30]: 100
Plant response rating, Wheat [11, 29]: 50
Plant response rating, Wheat [11, 30]: 60
Blackgrass plant response rating [12]: 30
Plant response rating, Blackgrass [12]: 90
Corn plant response rating [13]: 70
Plant response rating, Corn [13]: 70
Foxtail, Giant plant response rating [14]: 50
Plant response rating, Foxtail, Giant [14]: 90
Goosegrass plant response rating [15]: 70
Plant response rating, Goosegrass [15]: 100
Kochia plant response rating [16]: 80
Plant response rating, Kochia [16]: 90
Oat, Wild plant response rating [17]: 30
Plant response rating, Oat, Wild [17]: 70
Pigweed, Palmer plant response rating [18]: 70
Plant response rating, Pigweed, Palmer [18]: 100
Ragweed plant response rating [19]: 60
Plant response rating, Ragweed [19]: 70
Ryegrass, Italian plant response rating [20]: 50
Plant response rating, Ryegrass, Italian [20]: 80
Soybean plant response rating [21]: 100
Plant response rating, Soybean [21]: 100
Wheat plant response rating [22]: 30
Plant response rating, Wheat [22]: 40
Galium plant response rating [23]: 80
Plant response rating, Galium [23]: 100
Horseweed plant response rating [24]: 40
Plant response rating, Horseweed [24]: 70
Plant response rating, Barnyardgrass [25]: 0
Plant response rating, Ducksalad [26]: 40
Plant response rating, Rice [27]: 0
Plant response rating, Sedge, Umbrella [28]: 55

CCOc1ccc(-n2cnc(C(C)C)n2)cc1C(=O)N1C[C@H](C)Oc2c(Cl)cccc21 [Compound 106]
Plant response rating, Blackgrass [1, 29]: 0
Plant response rating, Blackgrass [1, 30]: 0
Plant response rating, Corn [2, 29]: 10
Plant response rating, Corn [2, 30]: 50
Plant response rating, Foxtail, Giant [3, 29]: 100
Plant response rating, Foxtail, Giant [3, 30]: 100
Plant response rating, Goosegrass [4, 29]: 100
Plant response rating, Goosegrass [4, 30]: 100
Plant response rating, Kochia [5, 29]: 50
Plant response rating, Kochia [5, 30]: 100
Plant response rating, Oat, Wild [6, 29]: 20
Plant response rating, Oat, Wild [6, 30]: 90
Plant response rating, Pigweed, Palmer [7, 29]: 100
Plant response rating, Pigweed, Palmer [7, 30]: 100
Plant response rating, Ragweed [8, 29]: 30
Plant response rating, Ragweed [8, 30]: 100
Plant response rating, Ryegrass, Italian [9, 29]: 40
Plant response rating, Ryegrass, Italian [9, 30]: 100
Plant response rating, Soybean [10, 29]: 50
Plant response rating, Soybean [10, 30]: 100
Plant response rating, Wheat [11, 29]: 0
Plant response rating, Wheat [11, 30]: 40
Blackgrass plant response rating [12]: 60
Plant response rating, Blackgrass [12]: 80
Corn plant response rating [13]: 60
Plant response rating, Corn [13]: 90
Foxtail, Giant plant response rating [14]: 90
Plant response rating, Foxtail, Giant [14]: 100
Goosegrass plant response rating [15]: 70
Plant response rating, Goosegrass [15]: 90
Kochia plant response rating [16]: 90
Plant response rating, Kochia [16]: 90
Oat, Wild plant response rating [17]: 30
Plant response rating, Oat, Wild [17]: 60
Pigweed, Palmer plant response rating [18]: 70
Plant response rating, Pigweed, Palmer [18]: 90
Ragweed plant response rating [19]: 50
Plant response rating, Ragweed [19]: 70
Ryegrass, Italian plant response rating [20]: 20
Plant response rating, Ryegrass, Italian [20]: 80
Soybean plant response rating [21]: 100
Plant response rating, Soybean [21]: 100
Wheat plant response rating [22]: 20
Plant response rating, Wheat [22]: 40
Galium plant response rating [23]: 70
Plant response rating, Galium [23]: 100
Horseweed plant response rating [24]: 10
Plant response rating, Horseweed [24]: 80
Plant response rating, Barnyardgrass [25]: 55
Plant response rating, Ducksalad [26]: 10
Plant response rating, Rice [27]: 15
Plant response rating, Sedge, Umbrella [28]: 90
